Data as given in patent US20250171426A1, “PYRIMIDINEDIONE-BASED COMPOUNDS AS AXL, C-MET, AND MER INHIBITORS AND METHODS OF USE THEREOF” (CMG Pharmaceutical Co., Ltd., priority 2022, published 2025).

Tests used:
[1] = test system: HCC827OR; assay: Cell viability assay (CellTiter-Glo 2.0), osimertinib-resistant HCC827/OR cells; assay type: cell-based, human
From the text: (§1) To explore c-MET and AXL mechanisms of EGFR TKI resistance, resistant cells of the EGFR TKI hypersensitive EGFR exon 19 mutant NSCLC cell line, HCC827 and PC9 were generated by exposing these cells to increasing concentrations of EGFR TKI for over 3 months.
(§2) Gefitinib-resistant cells were referred to as HCC827/GR. […] Osimertinib-resistant cells were referred to as HCC827/OR.

[2] = test system: PC9ER; assay: Cell viability assay (CellTiter-Glo 2.0), erlotinib-resistant PC9/ER cells; assay type: cell-based; settings: 72 h, combination of EGFR TKI and inhibitor of Formula (I), read-out: Relative cell viability, IC50 (nM) PC9ER
From the text: as §1, §2

[3] = test system: HCC827ER; assay: Cell viability assay (CellTiter-Glo 2.0), erlotinib-resistant HCC827/ER cells; assay type: cell-based, human; settings: 72 h, combination of EGFR TKI and inhibitor of Formula (I), read-out: Relative cell viability, IC50 (nM) HCC827ER
From the text: as §1, §2

[4] = test system: HCC827GR; assay: Cell viability assay (CellTiter-Glo 2.0), gefitinib-resistant HCC827/GR cells; assay type: cell-based, human; settings: 72 h, combination of EGFR TKI and inhibitor of Formula (I), read-out: Relative cell viability, IC50 (nM) HCC827GR
From the text: as §1
The human cell line HCC827 was purchased from the American Type Culture Collection (Manassas, VA), and the PC9 cell line was obtained from RIKEN Cell Bank (Ibaraki, Japan). […] Gefitinib-resistant cells were referred to as HCC827/GR. […] Osimertinib-resistant cells were referred to as HCC827/OR.
(§3) Cell viability assays were carried out by plating 1,000 cells per well of HCC827 or PC9 resistant cells, respectively, into white transparent-bottom 384-well plates. The cells were treated with each TKI across a 10-dose range from 1 nM to 10,000 nM. After 72 h of drug treatment, cell viability was measured using the CellTiter-Glo 2.0 assay (Promega, Madison, WI).
as §3

[5] = molecular target: c-MET (Homo sapiens, UniProt P08581); assay: Enzymatic assay (ADP-Glo kinase reaction), c-MET; assay type: biochemical; settings: 10 μM ATP, 60 min, ADP-GLO luminescence
In short: (§4)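 For both AXL and c-MET, reactions in tyrosine kinase buffer used 0.2 μg/μL poly(Glu4,Tyr1) and 10 μM ATP with serially diluted inhibitor, 60 min at room temperature. ADP formed was read by ADP-Glo luminescence after 40 min reagent incubation.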

[6] = molecular target: T1, AXL (Homo sapiens, UniProt P30530); assay: Enzymatic assay (ADP-Glo kinase reaction), AXL; assay type: biochemical; settings: 10 μM ATP, 60 min, ADP-GLO luminescence
T1 sequence (P30530 26-894): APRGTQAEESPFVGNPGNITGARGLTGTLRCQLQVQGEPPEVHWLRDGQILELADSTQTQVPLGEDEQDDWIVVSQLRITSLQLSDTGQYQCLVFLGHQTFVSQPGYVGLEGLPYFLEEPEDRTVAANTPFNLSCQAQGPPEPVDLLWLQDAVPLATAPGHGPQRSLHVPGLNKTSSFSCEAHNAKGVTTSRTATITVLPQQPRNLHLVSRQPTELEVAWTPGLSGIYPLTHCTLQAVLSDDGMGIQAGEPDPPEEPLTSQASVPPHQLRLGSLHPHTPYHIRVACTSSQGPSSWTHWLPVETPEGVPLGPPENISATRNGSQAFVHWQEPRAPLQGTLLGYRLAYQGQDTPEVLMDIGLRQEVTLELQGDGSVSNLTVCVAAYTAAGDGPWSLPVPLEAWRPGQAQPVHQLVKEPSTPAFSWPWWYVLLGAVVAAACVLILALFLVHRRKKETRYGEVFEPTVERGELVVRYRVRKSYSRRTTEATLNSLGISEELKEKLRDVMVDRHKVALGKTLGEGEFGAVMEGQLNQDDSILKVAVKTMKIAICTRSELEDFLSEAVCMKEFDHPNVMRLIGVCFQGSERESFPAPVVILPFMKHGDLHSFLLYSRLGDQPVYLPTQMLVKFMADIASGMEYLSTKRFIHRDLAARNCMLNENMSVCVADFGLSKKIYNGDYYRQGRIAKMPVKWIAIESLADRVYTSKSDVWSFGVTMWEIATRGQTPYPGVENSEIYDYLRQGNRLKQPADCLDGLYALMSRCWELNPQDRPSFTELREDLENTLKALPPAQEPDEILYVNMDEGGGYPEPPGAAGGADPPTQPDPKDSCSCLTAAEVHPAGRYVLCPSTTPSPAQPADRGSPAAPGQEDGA
In short: as §4

[7] = molecular target: T2, MER (Homo sapiens, UniProt Q12866); assay: Enzymatic assay (ADP-Glo kinase reaction), MER; assay type: biochemical; settings: 10 μM ATP, 60 min, ADP-GLO luminescence
T2 sequence (Q12866 21-999): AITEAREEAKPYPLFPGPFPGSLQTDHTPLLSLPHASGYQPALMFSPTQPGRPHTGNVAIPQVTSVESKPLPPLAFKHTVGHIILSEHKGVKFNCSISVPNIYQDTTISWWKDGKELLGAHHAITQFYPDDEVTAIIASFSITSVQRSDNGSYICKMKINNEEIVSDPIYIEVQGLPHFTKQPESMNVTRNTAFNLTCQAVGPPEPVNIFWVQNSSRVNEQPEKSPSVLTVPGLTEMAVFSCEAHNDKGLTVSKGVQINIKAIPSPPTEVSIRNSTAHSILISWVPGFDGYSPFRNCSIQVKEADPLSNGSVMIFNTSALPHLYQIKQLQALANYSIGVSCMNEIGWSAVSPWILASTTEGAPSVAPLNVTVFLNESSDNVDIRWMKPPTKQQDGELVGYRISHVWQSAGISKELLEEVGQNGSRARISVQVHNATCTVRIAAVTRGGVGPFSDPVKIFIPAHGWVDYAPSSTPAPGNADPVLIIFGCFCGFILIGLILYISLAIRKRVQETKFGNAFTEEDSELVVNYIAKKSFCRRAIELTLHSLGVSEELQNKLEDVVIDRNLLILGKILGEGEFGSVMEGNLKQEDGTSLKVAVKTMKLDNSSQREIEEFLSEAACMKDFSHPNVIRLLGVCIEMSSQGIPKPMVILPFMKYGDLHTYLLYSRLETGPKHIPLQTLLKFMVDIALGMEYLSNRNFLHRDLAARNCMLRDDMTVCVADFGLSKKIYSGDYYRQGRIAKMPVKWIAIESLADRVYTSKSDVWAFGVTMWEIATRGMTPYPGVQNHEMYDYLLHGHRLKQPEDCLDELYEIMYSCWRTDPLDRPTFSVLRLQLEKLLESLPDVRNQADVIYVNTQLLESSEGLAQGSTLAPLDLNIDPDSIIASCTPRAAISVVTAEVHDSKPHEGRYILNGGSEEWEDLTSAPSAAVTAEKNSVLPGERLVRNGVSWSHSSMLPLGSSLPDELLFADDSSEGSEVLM
In short: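 ADP-Glo luminescence assay of MER in tyrosine kinase buffer with 0.2 μg/μL poly(Glu4,Tyr1) substrate and 10 μM ATP. Serially diluted inhibitor reacted 60 min at room temperature. IC50 taken from luminescence after ADP-Glo and detection steps.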

Chain of c-MET (P08581 25-1390): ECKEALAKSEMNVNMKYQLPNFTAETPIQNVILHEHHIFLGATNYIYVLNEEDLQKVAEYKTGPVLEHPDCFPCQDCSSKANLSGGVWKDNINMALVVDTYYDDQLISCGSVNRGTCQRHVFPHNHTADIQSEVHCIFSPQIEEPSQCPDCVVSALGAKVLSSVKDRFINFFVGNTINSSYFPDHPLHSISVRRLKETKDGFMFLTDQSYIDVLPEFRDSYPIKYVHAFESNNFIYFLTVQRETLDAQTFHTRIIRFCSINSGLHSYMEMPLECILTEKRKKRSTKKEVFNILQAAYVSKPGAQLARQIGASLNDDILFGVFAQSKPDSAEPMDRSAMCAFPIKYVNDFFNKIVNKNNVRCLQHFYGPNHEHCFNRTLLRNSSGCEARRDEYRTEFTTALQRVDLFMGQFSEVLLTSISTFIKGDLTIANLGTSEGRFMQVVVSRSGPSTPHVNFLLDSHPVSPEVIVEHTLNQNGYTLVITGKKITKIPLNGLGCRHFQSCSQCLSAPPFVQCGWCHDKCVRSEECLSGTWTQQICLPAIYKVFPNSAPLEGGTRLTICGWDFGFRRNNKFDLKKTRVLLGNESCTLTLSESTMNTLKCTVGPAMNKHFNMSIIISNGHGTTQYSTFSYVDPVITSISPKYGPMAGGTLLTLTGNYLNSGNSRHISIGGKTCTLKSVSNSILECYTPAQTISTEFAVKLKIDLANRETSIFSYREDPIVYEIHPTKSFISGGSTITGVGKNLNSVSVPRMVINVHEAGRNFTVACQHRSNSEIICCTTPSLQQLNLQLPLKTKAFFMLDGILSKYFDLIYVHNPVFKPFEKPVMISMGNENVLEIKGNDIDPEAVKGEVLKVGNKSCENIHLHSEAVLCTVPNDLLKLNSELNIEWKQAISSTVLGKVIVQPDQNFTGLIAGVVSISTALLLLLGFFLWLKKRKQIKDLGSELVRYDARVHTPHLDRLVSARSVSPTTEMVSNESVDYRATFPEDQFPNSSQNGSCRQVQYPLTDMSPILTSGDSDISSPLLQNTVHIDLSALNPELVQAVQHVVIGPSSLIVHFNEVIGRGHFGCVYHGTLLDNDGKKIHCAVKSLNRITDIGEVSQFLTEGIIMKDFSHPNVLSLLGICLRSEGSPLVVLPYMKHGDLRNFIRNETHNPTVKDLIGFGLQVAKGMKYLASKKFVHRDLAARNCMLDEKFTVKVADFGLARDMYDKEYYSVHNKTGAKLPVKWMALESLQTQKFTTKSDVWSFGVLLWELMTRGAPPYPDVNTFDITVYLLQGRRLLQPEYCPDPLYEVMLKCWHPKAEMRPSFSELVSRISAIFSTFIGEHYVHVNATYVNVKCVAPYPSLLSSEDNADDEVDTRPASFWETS

IC50 [2] | IC50 [3] | IC50 [4] | IC50 ([1]; 72 h, combination of EGFR TKI and inhibitor of Formula (I), EGFR TKI-resistant cells, read-out: Relative cell viability, IC50 (nM) HCC827OR) | IC50 [5] | IC50 [6] | IC50 [7] | Molecule | fold higher resistance than the parental cells, HCC827/OR ([1]; HCC827/OR vs HCC827)
< 1000 nM | < 1000 nM | < 1000 nM | < 10000 nM | – | – | – | N-(4-(2-amino-3-(3-piperidin-4-yl)prop-1-ynyl)pyridin-4-yloxy)-3-fluorophenyl)-3-cyclohexyl-1-ethyl-2,4-dioxo-1,2,3,4-tetrahydropyrimidine-5-carboxamide [Example 65] | –
– | – | – | – | < 100 nM | < 100 nM | < 100 nM | Nc1nccc(Oc2ccc(NC(=O)c3cn(C4CCOCC4)c(=O)n(-c4ccc(F)cc4)c3=O)cc2F)c1C#CCN1CCOCC1 [Example 56, N-(4-(2-amino-3-(3-morpholinoprop-1-ynyl)pyridin-4-yloxy)-3-fluorophenyl)-3-(4-fluorophenyl)-2,4-dioxo-1-(tetrahydro-2H-pyran-4-yl)-1,2,3,4-tetrahydropyrimidine-5-carboxamide] | –
– | – | – | – | < 100 nM | < 100 nM | < 10 nM | Nc1nccc(Oc2ccc(NC(=O)c3cn(C4CCOCC4)c(=O)n(-c4ccc(F)cc4)c3=O)cc2F)c1C#CCC1CCNCC1 [Example 59, N-(4-(2-amino-3-(3-(piperidin-4-yl)prop-1-ynyl)pyridin-4-yloxy)-3-fluorophenyl)-3-(4-fluorophenyl)-2,4-dioxo-1-(tetrahydro-2H-pyran-4-yl)-1,2,3,4-tetrahydropyrimidine-5-carboxamide] | –

The remaining lines, values behind:

Molecule | IC50 [2] | IC50 [3] | IC50 [4] | IC50 ([1]; 72 h, combination of EGFR TKI and inhibitor of Formula (I), EGFR TKI-resistant cells, read-out: Relative cell viability, IC50 (nM) HCC827OR) | IC50 [5] | IC50 [6] | IC50 [7] | fold higher resistance than the parental cells, HCC827/OR ([1]; HCC827/OR vs HCC827)
C=CC(=O)Nc1cc(Nc2nccc(-c3cn(C)c4ccccc34)n2)c(OC)cc1N(C)CCN(C)C [osimertinib, reference compound] | – | – | – | – | – | – | – | 3,000 fold
Cn1nc(C(=O)Nc2ccc(Oc3ccnc(N)c3C#CC(C)(C)N3CCNCC3)c(F)c2)c(=O)n(-c2ccc(F)cc2)c1=O [Example 47, N-(4-(2-amino-3-(3-methyl-3-(piperazin-1-yl)but-1-ynyl)pyridin-4-yloxy)-3-fluorophenyl)-4-(4-fluorophenyl)-2-methyl-3,5-dioxo-2,3,4,5-tetrahydro-1,2,4-triazine-6-carboxamide] | – | – | – | – | < 1000 nM | < 10 nM | < 100 nM | –
CN(C)C(=O)Cn1cc(C(=O)Nc2ccc(Oc3ccnc(N)c3C#CCC3CCNCC3)c(F)c2)c(=O)n(-c2ccc(F)cc2)c1=O [Example 38, N-(4-((2-amino-3-(3-(piperidin-4-yl)prop-1-yn-1-yl)pyridin-4-yl)oxy)-3-fluorophenyl)-1-(2-(dimethylamino)-2-oxoethyl)-3-(4-fluorophenyl)-2,4-dioxo-1,2,3,4-tetrahydropyrimidine-5-carboxamide] | – | – | – | – | < 10 nM | < 100 nM | < 10 nM | –
CC(C)n1cc(C(=O)Nc2ccc(Oc3ccnc(N)c3C#CC3CCN(C)CC3)c(F)c2)c(=O)n(-c2ccc(F)cc2)c1=O [Example 23, N-(4-(2-amino-3-((1-methylpiperidin-4-yl)ethynyl)pyridin-4-yloxy)-3-fluorophenyl)-3-(4-fluorophenyl)-1-isopropyl-2,4-dioxo-1,2,3,4-tetrahydropyrimidine-5-carboxamide] | – | – | – | – | < 1000 nM | < 10 nM | < 10 nM | –
CN1CCC(CC#Cc2c(Oc3ccc(NC(=O)c4c[nH]c(=O)n(-c5ccc(F)cc5)c4=O)cc3F)ccnc2N)CC1 [Example 54, N-(4-(2-amino-3-(3-(1-methylpiperidin-4-yl)prop-1-ynyl)pyridin-4-yloxy)-3-fluorophenyl)-3-(4-fluorophenyl)-2,4-dioxo-1,2,3,4-tetrahydropyrimidine-5-carboxamide] | – | – | – | – | < 10 nM | < 10 nM | < 100 nM | –
Nc1nccc(Oc2ccc(NC(=O)c3c[nH]c(=O)n(-c4ccc(F)cc4)c3=O)cc2F)c1C#CCC1CCNCC1 [Example 53, N-(4-(2-amino-3-(3-(piperidin-4-yl)prop-1-ynyl)pyridin-4-yloxy)-3-fluorophenyl)-3-(4-fluorophenyl)-2,4-dioxo-1,2,3,4-tetrahydropyrimidine-5-carboxamide] | – | – | – | – | < 100 nM | < 10 nM | < 10 nM | –
